Measurements from patent US12673975B2, “Cyclic peptide, cell scaffold material, cell separating material, and medium” (FUJIFILM Corporation, priority 2019, dated 2026).
Like-named read-outs stand apart in the source and are kept apart here. Starred links: 1 amine or outer side, 2 acyl side, 3 side chain; linkers in the order of their positions; H or OH if unused. Positions of bridges follow the written chain, without caps; N, C: chain ends. Non-standard residues stand in square brackets, D forms with d. Residues, ends and D or L forms follow the SMILES beside them. Pen = CC(C)(S)[C@H](N)C(=O)O; hCys = N[C@@H](CCS)C(=O)O; Dab = NCC[C@H](N)C(=O)O; Dap = NC[C@H](N)C(=O)O; X1 = O=C(C[*:2])[*:1]; X2 = O=C(C[*:1])[*:2]

Key:
[1] = Evaluation of molecule stability (alkali treatment, residual rate by LC/MS); assay type: physicochemical; details: for Stability (molecule stability, residual rate of the cyclic peptide rank): alkali treatment, residual rate by LC/MS; for Performance evaluation: Stability (residual rate of cyclic peptide after alkali treatment): 500 μM peptide aqueous solution plus equivalent of 1 M sodium hydroxide, 15° C., 3 hours, LC/MS peak area
Method in brief: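 Stability read as percent of summed LC/MS peak area remaining versus untreated peptide (C18, 45 °C, 10 mM ammonium formate pH 3, ESI positive/negative). Treatment: 500 μM peptide in water plus an equivalent of 1 M NaOH, 15 °C for 3 hours.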

[2] = molecular target: human integrin αvβ5 (Homo sapiens, UniProt P06756+P18084); experiment: Evaluation of integrin binding property (surface plasmon resonance, Biacore 3000, immobilized cyclic peptide)
Method in brief: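 Human αvβ5 (30-1,000 nM) flowed for 10 min at 25 °C over immobilized cyclic peptide in 20 mM HEPES, 150 mM NaCl, 5 mM MgCl2, pH 7.4, followed by 30 min running buffer and 0.5 M EDTA regeneration. Dissociation constant from peptide minus unimmobilized channel, scored into standard grades.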

[3] = surface plasmon resonance, immobilized cyclic peptide, human integrin αvβ5, read-out: Binding activity (integrin binding property, dissociation constant rank)
[4] = SPR, 25° C., HEPES buffer with 5 mM magnesium chloride, integrin 30-1,000 nM, read-out: Performance evaluation: Binding activity (dissociation constant between the cyclic peptide and human integrin αvβ5)

Sequence of human integrin αvβ5 (P06756 31-1048): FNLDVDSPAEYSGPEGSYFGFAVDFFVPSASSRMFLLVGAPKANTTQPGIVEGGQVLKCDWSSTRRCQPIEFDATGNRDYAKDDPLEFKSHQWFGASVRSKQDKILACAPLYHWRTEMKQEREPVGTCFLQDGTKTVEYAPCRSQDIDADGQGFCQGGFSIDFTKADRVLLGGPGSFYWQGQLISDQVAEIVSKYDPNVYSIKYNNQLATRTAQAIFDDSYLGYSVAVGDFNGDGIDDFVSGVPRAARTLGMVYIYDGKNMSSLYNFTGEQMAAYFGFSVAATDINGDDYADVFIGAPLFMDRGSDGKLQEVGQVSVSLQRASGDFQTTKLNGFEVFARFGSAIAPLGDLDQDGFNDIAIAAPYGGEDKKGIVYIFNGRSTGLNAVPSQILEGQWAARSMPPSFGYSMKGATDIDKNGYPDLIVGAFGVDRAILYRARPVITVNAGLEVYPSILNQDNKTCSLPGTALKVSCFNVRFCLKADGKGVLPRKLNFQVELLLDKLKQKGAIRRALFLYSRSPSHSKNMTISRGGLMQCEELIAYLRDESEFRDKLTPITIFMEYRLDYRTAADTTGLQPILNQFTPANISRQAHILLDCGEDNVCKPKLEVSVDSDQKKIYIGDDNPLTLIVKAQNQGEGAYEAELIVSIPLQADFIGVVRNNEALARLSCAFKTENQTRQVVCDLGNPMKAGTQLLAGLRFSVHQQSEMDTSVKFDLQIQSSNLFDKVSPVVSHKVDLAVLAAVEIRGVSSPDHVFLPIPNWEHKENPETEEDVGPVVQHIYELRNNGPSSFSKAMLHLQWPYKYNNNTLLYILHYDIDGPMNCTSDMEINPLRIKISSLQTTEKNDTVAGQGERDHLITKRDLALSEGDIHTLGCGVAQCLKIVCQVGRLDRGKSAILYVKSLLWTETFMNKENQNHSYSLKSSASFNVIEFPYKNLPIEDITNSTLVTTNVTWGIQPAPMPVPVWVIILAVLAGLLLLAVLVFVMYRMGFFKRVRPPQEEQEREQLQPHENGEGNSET
Sequence of human integrin αvβ5 (P18084 24-799): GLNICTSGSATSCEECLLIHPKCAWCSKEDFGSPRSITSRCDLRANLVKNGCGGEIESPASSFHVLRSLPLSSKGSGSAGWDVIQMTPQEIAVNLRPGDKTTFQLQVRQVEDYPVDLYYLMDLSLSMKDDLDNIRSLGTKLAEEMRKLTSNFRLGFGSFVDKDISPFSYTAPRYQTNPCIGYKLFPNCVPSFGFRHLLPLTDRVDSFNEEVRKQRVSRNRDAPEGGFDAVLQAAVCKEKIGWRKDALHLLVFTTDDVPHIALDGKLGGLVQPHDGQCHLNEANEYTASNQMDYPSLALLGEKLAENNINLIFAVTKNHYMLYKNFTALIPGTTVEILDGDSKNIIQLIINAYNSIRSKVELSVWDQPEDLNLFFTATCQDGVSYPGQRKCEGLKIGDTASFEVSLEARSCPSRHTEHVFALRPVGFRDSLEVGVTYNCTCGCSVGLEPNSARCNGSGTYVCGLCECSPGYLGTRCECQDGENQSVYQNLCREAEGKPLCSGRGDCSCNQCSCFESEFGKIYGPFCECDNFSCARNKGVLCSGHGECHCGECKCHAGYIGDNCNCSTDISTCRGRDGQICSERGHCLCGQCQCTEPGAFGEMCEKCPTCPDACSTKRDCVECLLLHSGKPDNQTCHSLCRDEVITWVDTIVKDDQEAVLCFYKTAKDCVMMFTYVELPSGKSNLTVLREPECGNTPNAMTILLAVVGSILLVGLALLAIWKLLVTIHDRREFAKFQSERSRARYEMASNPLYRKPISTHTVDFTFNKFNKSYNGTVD

In the case of CC(C)[C@@H]1NC(=O)[C@@H](NC(=O)CNC(=O)[C@H](CCCCN)NC(=O)[C@H](CCCCN)NC(=O)[C@@H](N)CCCCN)CCSCC(=O)NCC[C@@H](C(=O)NCC(=O)O)NC(=O)[C@H](C)NC(=O)[C@H](Cc2ccccc2)NC(=O)[C@H]([C@@H](C)O)NC(=O)[C@H](CC(=O)O)NC(=O)CNC(=O)[C@H](CCCNC(=N)N)NC(=O)[C@@H]2CCCN2C1=O [Cyclic peptide 105, KKKG-(Hcy)-VPRGDTFA(Dab(acetyl))G] (H-KKKG[hCys]VPRGDTFA[Dab]G-OH; linker 5-14 via X2), the “Stability (molecule stability, residual rate of the cyclic peptide rank)” value [1] is reported as “A (The residual rate of the cyclic peptide is 70% or more.)” and the Kd [2] is reported as < 0.05 µM.
For C[C@@H]1NC(=O)[C@H](Cc2ccccc2)NC(=O)[C@H]([C@@H](C)O)NC(=O)[C@H](CC(=O)O)NC(=O)CNC(=O)[C@H](CCCNC(=N)N)NC(=O)[C@@H]2CCCN2C(=O)[C@H](CCC(=O)O)NC(=O)[C@@H](NC(=O)[C@H](CCCCN)NC(=O)[C@H](CCCCN)NC(=O)[C@@H](N)CCCCN)CCSCC(=O)NCC[C@@H](C(=O)O)NC1=O [Cyclic peptide 145, KKK-(Hcy)-EPRGDTFA(Dab(acetyl))] (H-KKK[hCys]EPRGDTFA[Dab]-OH; linker 4-13 via X2), the “Stability (molecule stability, residual rate of the cyclic peptide rank)” value [1] was “A (The residual rate of the cyclic peptide is 70% or more.)” and the Kd [2, 3] was < 0.05 µM.
For CC(C)[C@@H]1NC(=O)[C@@H](NC(=O)CNC(=O)[C@H](CCCCN)NC(=O)[C@H](CCCCN)NC(=O)[C@@H](N)CCCCN)CCSCC(=O)NCC[C@@H](C(=O)N[C@@H](C)C(=O)O)NC(=O)[C@H](C)NC(=O)[C@H](Cc2ccccc2)NC(=O)[C@H](CO)NC(=O)[C@H](CC(=O)O)NC(=O)CNC(=O)[C@H](CCCNC(=N)N)NC(=O)[C@@H]2CCCN2C1=O [Cyclic peptide 98, KKKG-(Hcy)-VPRGDSFA(Dab(acetyl))A] (H-KKKG[hCys]VPRGDSFA[Dab]A-OH; linker 5-14 via X2), the “Performance evaluation: Stability (residual rate of cyclic peptide after alkali treatment)” value [1] was “A (The residual rate of the cyclic peptide is 70% or more.)” and the Kd [2, 4] was < 0.05 µM.
With CC(C)[C@@H]1NC(=O)[C@@H](NC(=O)[C@H](C)NC(=O)[C@H](CCCCN)NC(=O)[C@H](CCCCN)NC(=O)[C@@H](N)CCCCN)CCSCC(=O)NCC[C@@H](C(=O)N[C@@H](C)C(=O)O)NC(=O)[C@H](C)NC(=O)[C@H](Cc2ccccc2)NC(=O)[C@H](C)NC(=O)[C@H](CC(=O)O)NC(=O)CNC(=O)[C@H](CCCNC(=N)N)NC(=O)[C@@H]2CCCN2C1=O [Cyclic peptide 91, KKKA-(Hcy)-VPRGDAFA(Dab(acetyl))A] (H-KKKA[hCys]VPRGDAFA[Dab]A-OH; linker 5-14 via X2) the “Performance evaluation: Stability (residual rate of cyclic peptide after alkali treatment)” value [1] was “A (The residual rate of the cyclic peptide is 70% or more.)” and the Kd [2, 4] was < 0.05 µM.
In the case of C[C@H](NC(=O)[C@H](CCCCN)NC(=O)[C@H](CCCCN)NC(=O)[C@@H](N)CCCCN)C(=O)N[C@H]1CCSCC(=O)NCC[C@@H](C(=O)O)NC(=O)[C@H](CCCNC(=N)N)NC(=O)[C@H](Cc2ccc(O)cc2)NC(=O)[C@H](CC(N)=O)NC(=O)[C@H](CC(=O)O)NC(=O)CNC(=O)[C@H](CCCNC(=N)N)NC(=O)[C@@H]2CCCN2C(=O)[C@H](CCC(=O)O)NC1=O [Cyclic peptide 45, KKKA-(Hcy)-EPRGDNYR(Dab(acetyl))] (H-KKKA[hCys]EPRGDNYR[Dab]-OH; linker 5-14 via X2), the “Performance evaluation: Stability (residual rate of cyclic peptide after alkali treatment)” value [1] is reported as “A (The residual rate of the cyclic peptide is 70% or more.)” and the Kd [2, 4] is reported as 0.05 to 0.1 µM.
In the case of CC(C)[C@@H]1NC(=O)[C@@H](NC(=O)[C@H](C)NC(=O)[C@H](CCCCN)NC(=O)[C@H](CCCCN)NC(=O)[C@H](CCCCN)NC(=O)[C@@H](N)CCCCN)CCSCC(=O)NCC[C@@H](C(=O)N[C@@H](C)C(=O)O)NC(=O)[C@H](C)NC(=O)[C@H](Cc2ccccc2)NC(=O)[C@H]([C@@H](C)O)NC(=O)[C@H](CC(=O)O)NC(=O)CNC(=O)[C@H](CCCNC(=N)N)NC(=O)[C@@H]2CCCN2C1=O [Cyclic peptide 110, KKKKA-(Hcy)-VPRGDTFA(Dab(acetyl))A] (H-KKKKA[hCys]VPRGDTFA[Dab]A-OH; linker 6-15 via X2), the “Stability (molecule stability, residual rate of the cyclic peptide rank)” value [1] is reported as “A (The residual rate of the cyclic peptide is 70% or more.)” and the Kd [2, 3] is reported as < 0.05 µM.
With CC(C)C[C@@H]1NC(=O)[C@@H](NC(=O)CNC(=O)[C@H](CCCCN)NC(=O)[C@H](CCCCN)NC(=O)[C@@H](N)CCCCN)CCSCC(=O)NCC[C@@H](C(=O)N[C@@H](C)C(=O)O)NC(=O)[C@H](CCCNC(=N)N)NC(=O)[C@H](Cc2ccccc2)NC(=O)[C@H](CO)NC(=O)[C@H](CC(=O)O)NC(=O)CNC(=O)[C@H](CCCNC(=N)N)NC(=O)[C@@H]2CCCN2C1=O [Cyclic peptide 28, KKKG-(Hcy)-LPRGDSFR(Dab(acetyl))A] (H-KKKG[hCys]LPRGDSFR[Dab]A-OH; linker 5-14 via X2) the “Performance evaluation: Stability (residual rate of cyclic peptide after alkali treatment)” value [1] was “A (The residual rate of the cyclic peptide is 70% or more.)” and the Kd [2, 4] was 0.05 to 0.1 µM.
With N=C(N)NCCC[C@@H]1NC(=O)[C@H](Cc2ccc(O)cc2)NC(=O)[C@H](CC(N)=O)NC(=O)[C@H](CC(=O)O)NC(=O)CNC(=O)[C@H](CCCNC(=N)N)NC(=O)[C@@H]2CCCN2C(=O)[C@H](CCC(=O)O)NC(=O)[C@@H](NC(=O)[C@H](CCCCN)NC(=O)[C@H](CCCCN)NC(=O)[C@@H](N)CCCCN)CNC(=O)CSCC[C@@H](C(N)=O)NC1=O [Cyclic peptide 52, KKK(Dap(acetyl))EPRGDNYR-(Hcy)] (H-KKK[Dap]EPRGDNYR[hCys]-NH2; linker 4-13 via X1) the “Performance evaluation: Stability (residual rate of cyclic peptide after alkali treatment)” value [1] was “B (The residual rate of the cyclic peptide is 50% or more and less than 70%.)” and the Kd [2, 4] was 0.05 to 0.1 µM.
In the case of CC[C@H](C)[C@@H]1NC(=O)[C@@H](NC(=O)CNC(=O)[C@H](CCCCN)NC(=O)[C@H](CCCCN)NC(=O)[C@@H](N)CCCCN)CCCCNC(=O)CSC(C)(C)[C@@H](C(=O)N[C@@H](C)C(=O)O)NC(=O)[C@H](CCCNC(=N)N)NC(=O)[C@H](Cc2ccccc2)NC(=O)[C@H]([C@@H](C)O)NC(=O)[C@H](CC(=O)O)NC(=O)CNC(=O)[C@H](CCCNC(=N)N)NC(=O)[C@@H]2CCCN2C1=O [Cyclic peptide 135, KKKG(Lys(acetyl))IPRGDTFR-(Pen)-A] (H-KKKGKIPRGDTFR[Pen]A-OH; linker 5-14 via X1), the “Stability (molecule stability, residual rate of the cyclic peptide rank)” value [1] is reported as “A (The residual rate of the cyclic peptide is 70% or more.)” and the Kd [2, 3] is reported as 0.05 to 0.1 µM.
For CC[C@H](C)[C@@H]1NC(=O)[C@@H](NC(=O)[C@H](CCCCN)NC(=O)[C@H](CCCCN)NC(=O)[C@@H](N)CCCCN)CCSCC(=O)NCC[C@@H](C(=O)N[C@@H](C)C(=O)O)NC(=O)[C@H](C)NC(=O)[C@H](C)NC(=O)[C@H](CCCNC(=N)N)NC(=O)[C@H](Cc2ccccc2)NC(=O)[C@H](CC(N)=O)NC(=O)[C@H](CC(=O)O)NC(=O)CNC(=O)[C@H](CCCNC(=N)N)NC(=O)[C@@H]2CCCN2C1=O [Cyclic peptide 19, KKK-(Hcy)-IPRGDNFRAA(Dab(acetyl))A] (H-KKK[hCys]IPRGDNFRAA[Dab]A-OH; linker 4-15 via X2), the “Performance evaluation: Stability (residual rate of cyclic peptide after alkali treatment)” value [1] was “A (The residual rate of the cyclic peptide is 70% or more.)” and the Kd [2, 4] was < 0.05 µM.
With CC(C)[C@@H]1NC(=O)[C@@H](NC(=O)[C@H](CCCCN)NC(=O)[C@H](CCCCN)NC(=O)[C@@H](N)CCCCN)CCSCC(=O)NCC[C@@H](C(=O)O)NC(=O)[C@H](C)NC(=O)[C@H](Cc2ccccc2)NC(=O)[C@H]([C@@H](C)O)NC(=O)[C@H](CC(=O)O)NC(=O)CNC(=O)[C@H](CCCNC(=N)N)NC(=O)[C@@H]2CCCN2C1=O [Cyclic peptide 104, KKK-(Hcy)-VPRGDTFA(Dab(acetyl))] (H-KKK[hCys]VPRGDTFA[Dab]-OH; linker 4-13 via X2) the “Stability (molecule stability, residual rate of the cyclic peptide rank)” value [1] was “A (The residual rate of the cyclic peptide is 70% or more.)” and the Kd [2, 3] was < 0.05 µM.
For C[C@H](NC(=O)[C@H](CCCCN)NC(=O)[C@H](CCCCN)NC(=O)[C@@H](N)CCCCN)C(=O)N[C@H]1CCSCC(=O)NCC[C@@H](C(N)=O)NC(=O)[C@H](CCCNC(=N)N)NC(=O)[C@H](Cc2ccc(O)cc2)NC(=O)[C@H](CC(N)=O)NC(=O)[C@H](CC(=O)O)NC(=O)CNC(=O)[C@H](CCCNC(=N)N)NC(=O)[C@@H]2CCCN2C(=O)[C@H](CCC(=O)O)NC1=O [Cyclic peptide 50, KKKA-(Hcy)-EPRGDNYR(Dab(acetyl))] (H-KKKA[hCys]EPRGDNYR[Dab]-NH2; linker 5-14 via X2), the “Performance evaluation: Stability (residual rate of cyclic peptide after alkali treatment)” value [1] was “A (The residual rate of the cyclic peptide is 70% or more.)” and the Kd [2, 4] was 0.1 to 0.2 µM.
